Reference: the supplement of paper PMC10307832

Experiments:
Assay in all cases: relative viability (nuclei count vs DMSO), 5 days (fraction); higher = more cells survive
PC-3 [JPC-3] = test system: PC-3 [JPC-3]
Method in brief: (§1)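 Relative viability divides the nuclei count in treated wells by that in vehicle wells. Lung cancer cell lines were seeded in 1536-well plates, dosed by pin tool the next day, and fixed and stained after 5 days in one step with final 0.05% Triton X-100, 1% formaldehyde and 1 ug/ml Hoechst. Dosing was a single drug or a fixed anchor-drug dose plus five library-drug doses (not always all listed) in √10 steps, and values are medians of duplicate plates imaged at 4×.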

NCI-H441 = test system: NCI-H441
Method in brief: as §1

COR-L23 = test system: COR-L23
Method in brief: as §1

UMC-11 = test system: UMC-11
Method in brief: as §1

NCI-H1755 = test system: NCI-H1755
Method in brief: as §1

NCI-H1734 = test system: NCI-H1734
Method in brief: as §1

EMC-BAC-2 = test system: EMC-BAC-2
Method in brief: as §1

NCI-H1437 = test system: NCI-H1437
Method in brief: as §1

NCI-H3122 = test system: NCI-H3122
Method in brief: as §1

NCI-H596 = test system: NCI-H596
Method in brief: as §1

LK-2 = test system: LK-2
Method in brief: as §1

NCI-H1651 = test system: NCI-H1651
Method in brief: as §1

NCI-H2347 = test system: NCI-H2347
Method in brief: as §1

ABC-1 = test system: ABC-1
Method in brief: as §1

HOP-62 = test system: HOP-62
Method in brief: as §1

RERF-LC-KJ = test system: RERF-LC-KJ
Method in brief: as §1

HARA = test system: HARA
Method in brief: as §1

NCI-H727 = test system: NCI-H727
Method in brief: as §1

SK-LU-1 = test system: SK-LU-1
Method in brief: as §1

NCI-H1650 = test system: NCI-H1650
Method in brief: as §1

HCC-366 = test system: HCC-366
Method in brief: as §1

Compound: CCNC(=O)c1noc(-c2cc(C(C)C)c(O)cc2O)c1-c1ccc(CN2CCOCC2)cc1 [Luminespib] + Nc1ncn([C@H]2C[C@H](O)[C@@H](CO)O2)c(=O)n1 [Decitabine] (partner 2 µM)
- relative viability (PC-3 [JPC-3]; first compound 0.002 µM): 0.888
- relative viability (PC-3 [JPC-3]; first compound 0.006325 µM): 0.842
- relative viability (PC-3 [JPC-3]; first compound 0.02 µM): 0.705
- relative viability (PC-3 [JPC-3]; first compound 0.06325 µM): 0.397
- relative viability (PC-3 [JPC-3]; first compound 0.2 µM): 0.506
- relative viability (NCI-H441; first compound 0.002 µM): 0.255
- relative viability (NCI-H441; first compound 0.006325 µM): 0.26
- relative viability (NCI-H441; first compound 0.02 µM): 0.184
- relative viability (NCI-H441; first compound 0.06325 µM): 0.155
- relative viability (NCI-H441; first compound 0.2 µM): 0.134
- relative viability (COR-L23; first compound 0.002 µM): 0.502
- relative viability (COR-L23; first compound 0.006325 µM): 0.374
- relative viability (COR-L23; first compound 0.02 µM): 0.353
- relative viability (COR-L23; first compound 0.06325 µM): 0.0888
- relative viability (COR-L23; first compound 0.2 µM): 0.0903
- relative viability (UMC-11; first compound 0.002 µM): 0.604
- relative viability (UMC-11; first compound 0.006325 µM): 0.569
- relative viability (UMC-11; first compound 0.02 µM): 0.334
- relative viability (UMC-11; first compound 0.06325 µM): 0.56
- relative viability (UMC-11; first compound 0.2 µM): 0.23
- relative viability (NCI-H1755; first compound 0.002 µM): 0.673
- relative viability (NCI-H1755; first compound 0.006325 µM): 0.691
- relative viability (NCI-H1755; first compound 0.02 µM): 0.696
- relative viability (NCI-H1755; first compound 0.06325 µM): 0.719
- relative viability (NCI-H1755; first compound 0.2 µM): 0.649
- relative viability (NCI-H1734; first compound 0.002 µM): 0.489
- relative viability (NCI-H1734; first compound 0.006325 µM): 0.469
- relative viability (NCI-H1734; first compound 0.02 µM): 0.448
- relative viability (NCI-H1734; first compound 0.06325 µM): 0.251
- relative viability (NCI-H1734; first compound 0.2 µM): 0.159
- relative viability (EMC-BAC-2; first compound 0.002 µM): 0.995
- relative viability (EMC-BAC-2; first compound 0.02 µM): 0.783
- relative viability (EMC-BAC-2; first compound 0.06325 µM): 0.564
- relative viability (EMC-BAC-2; first compound 0.2 µM): 0.237
- relative viability (NCI-H1437; first compound 0.002 µM): 0.606
- relative viability (NCI-H1437; first compound 0.006325 µM): 0.605
- relative viability (NCI-H1437; first compound 0.02 µM): 0.64
- relative viability (NCI-H1437; first compound 0.06325 µM): 0.428
- relative viability (NCI-H1437; first compound 0.2 µM): 0.229
- relative viability (NCI-H3122; first compound 0.002 µM): 0.474
- relative viability (NCI-H3122; first compound 0.006325 µM): 0.413
- relative viability (NCI-H3122; first compound 0.02 µM): 0.29
- relative viability (NCI-H3122; first compound 0.06325 µM): 0.418
- relative viability (NCI-H3122; first compound 0.2 µM): 0.403
- relative viability (NCI-H596; first compound 0.002 µM): 1.07
- relative viability (NCI-H596; first compound 0.006325 µM): 0.887
- relative viability (NCI-H596; first compound 0.02 µM): 0.88
- relative viability (NCI-H596; first compound 0.06325 µM): 0.991
- relative viability (NCI-H596; first compound 0.2 µM): 1.01
- relative viability (LK-2; first compound 0.002 µM): 0.32
- relative viability (LK-2; first compound 0.006325 µM): 0.268
- relative viability (LK-2; first compound 0.02 µM): 0.192
- relative viability (LK-2; first compound 0.06325 µM): 0.0898
- relative viability (LK-2; first compound 0.2 µM): 0.0914
- relative viability (NCI-H1651; first compound 0.002 µM): 0.612
- relative viability (NCI-H1651; first compound 0.006325 µM): 0.553
- relative viability (NCI-H1651; first compound 0.02 µM): 0.594
- relative viability (NCI-H1651; first compound 0.06325 µM): 0.469
- relative viability (NCI-H1651; first compound 0.2 µM): 0.226
- relative viability (NCI-H2347; first compound 0.002 µM): 0.603
- relative viability (NCI-H2347; first compound 0.006325 µM): 0.567
- relative viability (NCI-H2347; first compound 0.02 µM): 0.656
- relative viability (NCI-H2347; first compound 0.06325 µM): 0.431
- relative viability (NCI-H2347; first compound 0.2 µM): 0.373
- relative viability (ABC-1; first compound 0.002 µM): 1.19
- relative viability (ABC-1; first compound 0.006325 µM): 1.18
- relative viability (ABC-1; first compound 0.02 µM): 1.16
- relative viability (ABC-1; first compound 0.06325 µM): 0.755
- relative viability (ABC-1; first compound 0.2 µM): 0.344
- relative viability (HOP-62; first compound 0.002 µM): 0.219
- relative viability (HOP-62; first compound 0.006325 µM): 0.297
- relative viability (HOP-62; first compound 0.02 µM): 0.267
- relative viability (HOP-62; first compound 0.06325 µM): 0.223
- relative viability (HOP-62; first compound 0.2 µM): 0.174
- relative viability (RERF-LC-KJ; first compound 0.002 µM): 0.759
- relative viability (RERF-LC-KJ; first compound 0.006325 µM): 0.669
- relative viability (RERF-LC-KJ; first compound 0.02 µM): 0.417
- relative viability (RERF-LC-KJ; first compound 0.06325 µM): 0.225
- relative viability (RERF-LC-KJ; first compound 0.2 µM): 0.198
- relative viability (HARA; first compound 0.002 µM): 0.55
- relative viability (HARA; first compound 0.006325 µM): 0.569
- relative viability (HARA; first compound 0.02 µM): 0.532
- relative viability (HARA; first compound 0.06325 µM): 0.225
- relative viability (HARA; first compound 0.2 µM): 0.227
- relative viability (NCI-H727; first compound 0.002 µM): 0.893
- relative viability (NCI-H727; first compound 0.006325 µM): 0.857
- relative viability (NCI-H727; first compound 0.02 µM): 0.652
- relative viability (NCI-H727; first compound 0.06325 µM): 0.461
- relative viability (NCI-H727; first compound 0.2 µM): 0.368
- relative viability (SK-LU-1; first compound 0.002 µM): 0.725
- relative viability (SK-LU-1; first compound 0.006325 µM): 0.462
- relative viability (SK-LU-1; first compound 0.02 µM): 0.547
- relative viability (SK-LU-1; first compound 0.06325 µM): 0.198
- relative viability (SK-LU-1; first compound 0.2 µM): 0.216
- relative viability (NCI-H1650; first compound 0.002 µM): 0.463
- relative viability (NCI-H1650; first compound 0.006325 µM): 0.565
- relative viability (NCI-H1650; first compound 0.02 µM): 0.267
- relative viability (NCI-H1650; first compound 0.06325 µM): 0.137
- relative viability (NCI-H1650; first compound 0.2 µM): 0.133
- relative viability (HCC-366; first compound 0.002 µM): 0.327
- relative viability (HCC-366; first compound 0.006325 µM): 0.359
- relative viability (HCC-366; first compound 0.02 µM): 0.31
- relative viability (HCC-366; first compound 0.06325 µM): 0.0527
- relative viability (HCC-366; first compound 0.2 µM): 0.038
